{
  "source": "patent US7732658B2",
  "about": "“Composition and method for imaging cells” (Dana Farber Cancer Institute, Inc., priority 2002, dated 2010)",
  "key": {"32D/p210-Luc cells": {"test_system": "32D/p210-Luc cells", "assay": "CML model, 32D/p210-Luc cells imaged in vivo", "design": "species or system mice", "text": "FIG. 21 is a representation showing the results of a CML model used to evaluate the ABL-inhibitor AMN107."}, "[1]": {"test_system": "multiple myeloma (MM) model", "assay": "multiple myeloma (MM) model, cells selected for growth in bone", "type": "in vivo", "text": "FIG. 19 is a representation of the results of generating a multiple myeloma (MM) model, that was created by selecting cells with affinity for growth in bone."}, "TS(4;11)-LucNeo cells": {"test_system": "TS(4;11)-LucNeo cells", "assay": "in vivo bioluminescence imaging of mice bearing MLL leukemia cell line TS(4;11), drug treatment", "text": "FIG. 15 is a pictorial representation of treatment of mice bearing MLL leukemia cell line TS(4;11) with the FLT3 inhibitor PKC-412."}},
  "data": [
    {"smiles": "Cc1cn(-c2cc(NC(=O)c3ccc(C)c(Nc4nccc(-c5cccnc5)n4)c3)cc(C(F)(F)F)c2)cn1", "note": "[AMN107]", "values": [
      {"measurement": "tumor cell growth of 32D/p210-Luc cells (quantitative)", "setting": "32D/p210-Luc cells; FIG. 22", "value": "inhibits tumor cell growth"},
      {"measurement": "efficacy against 32D/p210-Luc cells in vivo (qualitative)", "setting": "32D/p210-Luc cells; five animals, nine day assay, FIG. 21", "value": "efficacious"}
    ]},
    {"smiles": "Nc1ncnc2c1c(-c1cccc(OCc3ccccc3)c1)cn2C1CC(CN2CCCC2)C1", "note": "(stereo not drawn) [ADW]", "values": [
      {"measurement": "tumor burden", "setting": "[1]; FIG. 19", "value": "reduction of tumor burden"},
      {"measurement": "survival as compared to untreated control", "setting": "[1]; FIG. 20", "value": "positively correlated with survival"}
    ]},
    {"smiles": "CO[C@@H]1[C@H](N(C)C(=O)c2ccccc2)C[C@H]2O[C@]1(C)n1c3ccccc3c3c4c(c5c6ccccc6n2c5c31)C(=O)NC4", "note": "[PKC-412]", "values": [
      {"measurement": "tumor cell size", "setting": "TS(4;11)-LucNeo cells; mice bearing TS(4;11) MLL cells, FIG. 16 left graph", "value": "reduces tumor cell size"},
      {"measurement": "bioluminescent flux as compared to controls", "setting": "TS(4;11)-LucNeo cells; nude mice, TS(4;11)-LucNeo cells, 150 mg/kg/day over a two week period", "value": "constant bioluminescent flux"}
    ]}
  ]
}
